Where two headings read alike, the source gives them in different places.

In one experiment the test system is MDA-MB-231 cells. Nature of the experiment: CellTiter-Glo Luminescent Cell Viability Assay on ER-negative breast cancer MDA-MB-231 cells. As to conditions: average ± standard deviation when tested more than 3 times, read-out: Inhibition of the viability of breast cancer cells, IC50. In kind it is cell-based. As to the method: A: In Vitro CellTiter-Glo® Luminescent Cell Viability Assay on ER-Negative Breast Cancer MDA-MB-231 Cells:
MDA-MB-231 cells were maintained at 37° C., under 5% CO2 atmosphere in DMEM containing 10% fetal calf serum. The cells were seeded on 96-well plate at a density of 6×10^3 cells per well. MDA-MB-231 cells were treated with a test compound dissolved in DMSO at the concentrations of zero, 0.3 μM, 0.5 μM, 1 μM, 2 μM, 3 μM, 5 μM, 10 μM, 20 μM, 30 μM, 50 μM and 100 μM for 72 hours. Treated cells were examined by CellTiter-Glo® Luminescent Cell Viability Assay Kit (Promega), and luminescence values were recorded with Envision.

Another experiment concerns MCF7 cells. Nature of the experiment: CellTiter-Glo Luminescent Cell Viability Assay on ER-positive breast cancer MCF-7 cells. As to conditions: average ± standard deviation when tested more than 3 times, read-out: Inhibition of the viability of breast cancer cells, IC50. The experiment is classed as cell-based, human. An excerpt: B: In Vitro CellTiter-Glo® Luminescent Cell Viability Assay on ER-Positive Breast Cancer MCF-7 Cells:
MCF7 cells are breast cancer cell lines that highly express ER-66, ER-46 and ER-36. (Relevance of breast cancer cell lines as models for breast tumours: an update. Marc Lacroix, Guy Leclercq, Breast Cancer Research and Treatment (2004) 83, 249-289; Wang et al., Proc. Natl. Acad. Sci. U.S.A. 103:9063-9068 (2006)). MCF7 cells were obtained from ATCC and maintained in Dulbecco's Modified Eagles Medium (DMEM) and 10% fetal calf serum at 37° C., under 5% CO2 atmosphere. The cells were seeded on 96-well plate at a density of 6×10^3 cells per well. MCF7 cells were treated with a test compound dissolved in DMSO at the concentrations of zero, 0.3 μM, 0.5 μM, 1 μM, 2 μM, 3 μM, 5 μM, 10 μM, 20 μM, 30 μM, 50 μM and 100 μM for 72 hours. Treated cells were examined by CellTiter-Glo® Luminescent Cell Viability Assay Kit (Promega), and luminescence values were recorded with Envision.

In the case of “2-(benzo[b]thiazol-2-yl)-5,7-dihydroxy-3-methoxy-6,8-di(3-3-methyl-2-buten-1-yl)-4H-benzopyran-4-one [Compound 49]”, the half-maximal inhibitory concentration (IC50) came to 17.9 µM in the experiment with MDA-MB-231 cells (72 hours) and 17.8 µM with MCF7 cells (72 hours). The matching figures for “2-(benzo[d][1,3]dioxo-5-yl)-5,7-dihydroxy-3-methoxy-6,8-di(3-methyl-2-buten-1-yl)-4H-benzopyran-4-one [Compound 21]”: 13.8 ± 2.1 µM and 47.2 ± 22.5 µM.

Consider “2-(piperazin-2-yl)-5,7-dihydroxy-3-methoxy-6,8-di(3-methyl-2-buten-1-yl)-4H-benzopyran-4-one [Compound 30]”, for which the IC50 in the experiment on MDA-MB-231 cells (72 hours) was 77.2 µM; in the experiment with MCF7 cells (72 hours), over 100 µM.

On to `COc1ccc(-c2oc3c(CC=C(C)C)c(O)c(CC=C(C)C)c(O)c3c(=O)c2OC)cc1F` [Compound 1, 2-(3-fluoro-4-methoxyphenyl)-5,7-dihydroxy-3-methoxy-6,8-di(3-methyl-2-buten-1-yl)-4H-benzopyran-4-one], for which the IC50 was 14.2 ± 5.18 µM in the experiment with MDA-MB-231 cells (Homo sapiens, MDA-MB-231, 72 h) and 16 µM with MCF7 cells (Homo sapiens, MCF7, 72 h). The matching figures for `COc1c(-c2cccc(F)c2)oc2c(CC=C(C)C)c(O)c(CC=C(C)C)c(O)c2c1=O` [Compound 3, 2-(3-fluorophenyl)-5,7-dihydroxy-3-methoxy-6,8-di(3-methyl-2-buten-1-yl)-4H-benzopyran-4-one]: 12.6 ± 2.4 µM and 10.4 ± 0.22 µM. As for `COc1cc(-c2oc3c(CC=C(C)C)c(O)c(CC=C(C)C)c(O)c3c(=O)c2OC)ccc1F` [Compound 9, 2-(4-fluoro-3-methoxyphenyl)-5,7-dihydroxy-3-methoxy-6,8-di(3-methyl-2-butylene-1-yl)-4H-benzopyran-4-one], the IC50 with MDA-MB-231 cells (72 hours) and with MCF7 cells (72 hours) was over 100 µM each time.

For the molecule `COc1c(-c2ccc(Cl)c(C)c2)oc2c(CC=C(C)C)c(O)c(CC=C(C)C)c(O)c2c1=O` [Compound 11, 2-(4-chloro-3-methylphenyl)-5,7-dihydroxy-3-methoxy-6,8-di(3-methyl-2-buten-1-yl)-4H-benzopyran-4-one], the IC50 in the experiment on MDA-MB-231 cells (Homo sapiens, MDA-MB-231, 72 h) came to 13.8 µM; in the experiment with MCF7 cells (Homo sapiens, MCF7, 72 h), 15.5 µM. On to `COc1c(-c2ccc(Cl)c(Cl)c2)oc2c(CC=C(C)C)c(O)c(CC=C(C)C)c(O)c2c1=O` [Compound 12, 2-(3,4-dichlorophenyl)-5,7-dihydroxy-3-methoxy-6,8-di(3-methyl-2-butylene-1-yl)-4H-benzopyran-4-one], for which the results for the IC50 in the experiment with MDA-MB-231 cells (72 hours) and in the experiment with MCF7 cells (72 hours) were 16.1 µM and over 100 µM, respectively. The matching figures for `COc1c(-c2ccc(Cl)c(C(F)(F)F)c2)oc2c(CC=C(C)C)c(O)c(CC=C(C)C)c(O)c2c1=O` [Compound 13, 2-(4-chloro-3-trifluoromethylphenyl)-5,7-dihydroxy-3-methoxy-6,8-di(3-methyl-2-butylene-1-yl)-4H-benzopyran-4-one]: 22.7 µM and 35.4 µM. The matching figures for `COc1c(-c2ccc(Cl)cc2F)oc2c(CC=C(C)C)c(O)c(CC=C(C)C)c(O)c2c1=O` [Compound 14, 2-(2-fluoro-4-chlorophenyl)-5,7-dihydroxy-3-methoxy-6,8-di(3-methyl-2-butylene-1-yl)-4H-benzopyran-4-one]: 23.6 µM and 13.5 µM.

In the case of `COc1c(-c2ccc(C)cc2)oc2c(CC=C(C)C)c(O)c(CC=C(C)C)c(O)c2c1=O` [Compound 16, 2-(4-methylphenyl)-5,7-dihydroxy-3-methoxy-6,8-di(3-methyl-2-butylene-1-yl)-4H-benzopyran-4-one], the 50% inhibitory concentration (IC50) is 16.3 µM with MDA-MB-231 cells (72 hours) and over 100 µM with MCF7 cells (72 hours). On the same counts, the results for `COc1c(-c2ccc(C(C)C)cc2)oc2c(CC=C(C)C)c(O)c(CC=C(C)C)c(O)c2c1=O` [Compound 17, 2-(4-isopropylphenyl)-5,7-dihydroxy-3-methoxy-6,8-di(3-methyl-2-butylene-1-yl)-4H-benzopyran-4-one] are 25.6 µM and 40.1 µM.

Turning to `COc1c(-c2ccc3ccccc3c2)oc2c(CC=C(C)C)c(O)c(CC=C(C)C)c(O)c2c1=O` [Compound 19, 2-(naphthalen-2-yl)-5,7-dihydroxy-3-methoxy-6,8-di(3-methyl-2-butylene-1-yl)-4H-benzopyran-4-one], the half-maximal inhibitory concentration (IC50) in the experiment with MDA-MB-231 cells (72 hours) turned out to be 13.7 ± 1.99 µM; in the experiment on MCF7 cells (72 hours), 27.4 µM. For the molecule `COc1c(-c2ccc3c(c2)OCCO3)oc2c(CC=C(C)C)c(O)c(CC=C(C)C)c(O)c2c1=O` [Compound 20, 2-(2,3-dihydrobenzo[b][1,4]dioxan-6-yl)-5,7-dihydroxy-3-methoxy-6,8-di(3-methyl-2-buten-1-yl)-4H-benzopyran-4-one], the IC50 in the experiment on MDA-MB-231 cells (72 hours) is 12.6 µM; in the experiment on MCF7 cells (72 hours), over 100 µM. In the case of `CCOc1ccc(-c2oc3c(CC=C(C)C)c(O)c(CC=C(C)C)c(O)c3c(=O)c2OC)cc1F` [Compound 23, 2-(3-fluoro-4-ethoxylphenyl)-5,7-dihydroxy-3-methoxy-6,8-di(3-methyl-2-buten-1-yl)-4H-benzopyran-4-one], the concentration for half-maximal inhibition (IC50) with MDA-MB-231 cells (Homo sapiens, MDA-MB-231, 72 h) amounted to 28.8 µM; in the experiment on MCF7 cells (Homo sapiens, MCF7, 72 h), 20.1 µM. The matching figures for `CCOc1ccc(-c2oc3c(CC=C(C)C)c(O)c(CC=C(C)C)c(O)c3c(=O)c2OC)cc1` [Compound 24, 2-(4-ethoxyphenyl)-5,7-dihydroxy-3-methoxy-6,8-di(3-methyl-2-buten-1-yl)-4H-benzopyran-4-one]: over 100 µM and over 100 µM. `COc1c(-c2cccnc2)oc2c(CC=C(C)C)c(O)c(CC=C(C)C)c(O)c2c1=O` [Compound 28, 2-(pyridin-3-yl)-5,7-dihydroxy-3-methoxy-6,8-di(3-methyl-2-buten-1-yl)-4H-benzopyran-4-one]: the IC50 in the experiment with MDA-MB-231 cells (Homo sapiens, MDA-MB-231, 72 h) worked out at 18.1 ± 4.3 µM; with MCF7 cells (Homo sapiens, MCF7, 72 h), 13.2 µM. Turning to `COc1c(-c2ccccn2)oc2c(CC=C(C)C)c(O)c(CC=C(C)C)c(O)c2c1=O` [Compound 29, 2-(pyridin-2-yl)-5,7-dihydroxy-3-methoxy-6,8-di(3-methyl-2-buten-1-yl)-4H-benzopyran-4-one], the IC50 is over 100 µM with MDA-MB-231 cells (Homo sapiens, MDA-MB-231, 72 h) and 12 µM in the experiment with MCF7 cells (Homo sapiens, MCF7, 72 h).

As to `COc1c(-c2ccncc2)oc2c(CC=C(C)C)c(O)c(CC=C(C)C)c(O)c2c1=O` [Compound 31, 2-(pyridin-4-yl)-5,7-dihydroxy-3-methoxy-6,8-di(3-methyl-2-buten-1-yl)-4H-benzopyran-4-one], the IC50 is 25.1 µM with MDA-MB-231 cells (Homo sapiens, MDA-MB-231, 72 h) and over 100 µM with MCF7 cells (Homo sapiens, MCF7, 72 h). As for `COc1c(-c2cncnc2)oc2c(CC=C(C)C)c(O)c(CC=C(C)C)c(O)c2c1=O` [Compound 32, 2-(pyrimidin-5-yl)-5,7-dihydroxy-3-methoxy-6,8-di(3-methyl-2-buten-1-yl)-4H-benzopyran-4-one], the 50% inhibitory concentration (IC50) worked out at 20 µM in the experiment with MDA-MB-231 cells (Homo sapiens, MDA-MB-231, 72 h) and 34.4 µM with MCF7 cells (Homo sapiens, MCF7, 72 h). The matching figures for `COc1c(-c2ncccn2)oc2c(CC=C(C)C)c(O)c(CC=C(C)C)c(O)c2c1=O` [Compound 33, 2-(pyrimidin-2-yl)-5,7-dihydroxy-3-methoxy-6,8-di(3-methyl-2-buten-1-yl)-4H-benzopyran-4-one]: 22.3 µM and over 100 µM.

`COc1c(C2CC2)oc2c(CC=C(C)C)c(O)c(CC=C(C)C)c(O)c2c1=O` [Compound 34, 2-cyclopropyl-5,7-dihydroxy-3-methoxy-6,8-di(3-methyl-2-buten-1-yl)-4H-benzopyran-4-one]: the IC50 with MDA-MB-231 cells (Homo sapiens, MDA-MB-231, 72 h) was 25.6 µM; with MCF7 cells (Homo sapiens, MCF7, 72 h), over 100 µM. The matching figures for `COc1c(C2CCC2)oc2c(CC=C(C)C)c(O)c(CC=C(C)C)c(O)c2c1=O` [Compound 35, 2-cyclobutyl-5,7-dihydroxy-3-methoxy-6,8-di(3-methyl-2-buten-1-yl)-4H-benzopyran-4-one]: over 100 µM and 88.1 µM. On the same counts, the results for `COc1c(C2CCCC2)oc2c(CC=C(C)C)c(O)c(CC=C(C)C)c(O)c2c1=O` [Compound 36, 2-cyclopentyl-5,7-dihydroxy-3-methoxy-6,8-di(3-methyl-2-buten-1-yl)-4H-benzopyran-4-one] are over 100 µM and over 100 µM.

On to `COc1c(C2CCOC2)oc2c(CC=C(C)C)c(O)c(CC=C(C)C)c(O)c2c1=O` (centres unmarked) [Compound 38, 2-(terthydrofuran-3-yl)-5,7-dihydroxy-3-methoxy-6,8-di(3-methyl-2-buten-1-yl)-4H-benzopyran-4-one], for which the IC50 in the experiment with MDA-MB-231 cells (72 hours) is over 100 µM; in the experiment with MCF7 cells (72 hours) it was 22.9 µM. With `COc1c(-c2cccs2)oc2c(CC=C(C)C)c(O)c(CC=C(C)C)c(O)c2c1=O` [Compound 39, 2-(thiophen-2-yl)-5,7-dihydroxy-3-methoxy-6,8-di(3-methyl-2-buten-1-yl)-4H-benzopyran-4-one], the IC50 in the experiment on MDA-MB-231 cells (Homo sapiens, MDA-MB-231, 72 h) was over 100 µM; in the experiment on MCF7 cells (Homo sapiens, MCF7, 72 h) it was 65.8 µM. As to `CC(C)=CCc1c(O)c(CC=C(C)C)c2oc(-c3ccc(F)cc3)c(O)c(=O)c2c1O` [Compound 97, 2-(4-fluorophenyl)-3,5,7-trihydroxy-6,8-di(3-methyl-2-buten-1-yl)-4H-benzopyran-4-one], the IC50 with MDA-MB-231 cells (Homo sapiens, MDA-MB-231, 72 h) worked out at 21.4 µM.
